US6790619B2, “Plant phosphomevalonate kinases” (Bayer Aktiengesellschaft, priority 2000, dated 2004)
“Also recorded” adds a separate entry of the source.

System: PMVK expression
Experiment: virtual Northern blot analysis of differential PMVK expression in response to chlorsulfuron
Type: in vivo, Arabidopsis thaliana cv. Columbia
Details: Arabidopsis plants harvested 24 hours after treatment with chlorsulfuron 10 g/ha vs control treatment
Protocol: Suppression subtractive hybridization constitutes a method of isolating differentially expressed genes. The two samples to be compared were on the one hand Arabidopsis plants which had been harvested 24 hours after treatment with a herbicide (chlorsulfuron, 10 g/ha) and, on the other hand, Arabidopsis plants which had been harvested 24 hours after a control treatment. The 370 bp PMVK fragment was isolated from the chlorsulfuron-treated plants in which PMVK transcription may have been induced by the treatment. To verify differential PMVK expression in the response to chlorsulfuron, so-called virtual Northern blot analyses were carried out. In a virtual Northern blot, cDNA is prepared from total RNA with Clontech's SMART method (see manufacturer's instructions) and amplified by PCR. A low enough number of PCR cycles is employed so that the amplification is still within the linear range of the PCR. In the present case, an optimum between 15 and 18 cycles emerged. The SMART cDNA is separated on an agarose gel by methods known to the skilled worker, transferred to a nylon membrane and hybridized with a DIG-labelled probe. This method permits study of the expression even of genes with a low expression level.

SMILES: COc1nc(C)nc(NC(=O)NS(=O)(=O)c2ccccc2Cl)n1 [chlorsulfuron]
- induction of PMVK expression: low degree of induction; also recorded: possible to induce this gene
